Assay [1] relates to IL-15 induced P-STAT5 in human PBMC (total lymphocytes). As to the kind of experiment: PBMC IL-15 Induced P-STAT5. The settings on record: IL-15 stimulated, read-out: PBMC IL15-pSTAT5 IC50. It counts as cell-based. The essentials:
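Thawed human PBMC in RPMI, preincubated 30 min at 37 °C, then IL-15 stimulated. Cells methanol-permeabilized (90%, on ice 20 min) and stained for phospho-STAT5. Read by flow cytometry, gated on total lymphocytes.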

Assay [2] concerns IL-15 induced STAT5 phosphorylation in Human Whole Blood (total lymphocytes). As to the kind of experiment: HWB IL-15 Induced STAT5 Phosphorylation Assay. It is filed as cell-based. The settings on record: Lymphocyte, IL-15 stimulated, read-out: HWB-IL15-pSTAT5 IC50. As to the method: HWB IL-15 Induced STAT5 Phosphorylation Assay
After mixing and incubating for 45 minutes at 37° C., 5 μl D-PBS (unstimulated control) or 20× stocks of 5 μl human IL-15 (final concentration is 50 ng/ml) were added, and mixed three times. After incubating 15 minutes at 37° C., 1× Lyse/Fix Buffer (BD Phosflow 5× Lyse/Fix Buffer) was added to all wells at 1000 μl/well, then incubated for 20 minutes at 37° C. and spun 5 mins at 1200 rpm. […] Following incubating at 4° C. over night, all the samples were transferred to 96-well polypropylene U-bottom plate, and checked by flow cytometry gated on total lymphocytes.

This note sets out measurements from patent US11111242B2, “Pyrrolo[2,3-d]pyrimidinyl, pyrrolo[2,3-b]pyrazinyl and pyrrolo[2,3-d]pyridinyl acrylamides” (Pfizer Inc., priority 2013, dated 2021).

Each structure is given as a SMILES string. Like-named read-outs stand apart in the source and are kept apart here.

For the molecule `C=CC(=O)N1CCC(Nc2cnc3[nH]cc(-c4ccc(F)nc4)c3n2)CC1` [Example 207, 1-(4-{[7-(6-fluoropyridin-3-yl)-5H-pyrrolo[2,3-b]pyrazin-2-yl]amino}piperidin-1-yl)prop-2-en-1-one], the results for the IC50 in assay [1] and in assay [2] were 185 nM and 2820 nM, respectively.

With `C=CC(=O)N1CCC(Nc2cnc3[nH]cc(-c4cncnc4)c3n2)CC1` [Example 202, 1-(4-{[7-(pyrimidin-5-yl)-5H-pyrrolo[2,3-b]pyrazin-2-yl]amino}piperidin-1-yl)prop-2-en-1-one], the results for the IC50 in assay [1] and in assay [2] were 670 nM and 3740 nM, respectively.

Consider `C=CC(=O)N1C[C@@H](C#N)C[C@@H](Nc2ncnc3[nH]ccc23)C1` [Example 58, (3S,5R)-5-((7H-pyrrolo[2,3-d]pyrimidin-4-yl)amino)-1-acryloylpiperidine-3-carbonitrile], for which the IC50 in assay [1] stood at 2790 nM; in assay [2], 7840 nM.

In the case of `C=CC(=O)N1CC[C@H](Nc2cnc3[nH]cc(C(=O)NC(C)C)c3n2)C1` [Example 171, 2-{[(3S)-1-acryloylpyrrolidin-3-yl]amino}-N-(propan-2-yl)-5H-pyrrolo[2,3-b]pyrazine-7-carboxamide], the IC50 in assay [1] stood at 726 nM; in assay [2] it was 2950 nM.

`C=CC(=O)N1C[C@H](Nc2ncnc3[nH]cc(Cl)c23)CC[C@@H]1C` [Example 18, 1-((2S,5R)-5-((5-Chloro-7H-pyrrolo[2,3-d]pyrimidin-4-yl)amino)-2-methylpiperidin-1-yl)prop-2-en-1-one]: the IC50 in assay [1] was found to be 31.5 nM; in assay [2], 555 nM.

For `C=CC(=O)N1CCN(c2cnc3[nH]cc(C(=O)NC(C)C)c3n2)C[C@@H]1CC` [Example 299, 2-[(3S)-4-acryloyl-3-ethylpiperazin-1-yl]-N-(propan-2-yl)-5H-pyrrolo[2,3-b]pyrazine-7-carboxamide], the IC50 is 225 nM in assay [1] and 1380 nM in assay [2].

With `C=CC(=O)N1C[C@@H](C)C[C@@H](Nc2ncnc3[nH]ccc23)C1` (racemic) [Example 22, rac-cis-1-((3R,5S)-3-((7H-Pyrrolo[2,3-d]pyrimidin-4-yl)amino)-5-methylpiperidin-1-yl)prop-2-en-1-one], the IC50 in assay [1] is 216 nM; in assay [2], 712 nM.

Turning to `C=CC(=O)N1CCC[C@H]1CNc1cnc2[nH]cc(C(=O)NC(C)C)c2n1` [Example 177, 2-({[(2S)-1-acryloylpyrrolidin-2-yl]methyl}amino)-N-(propan-2-yl)-5H-pyrrolo[2,3-b]pyrazine-7-carboxamide], the 50% inhibitory concentration (IC50) in assay [1] (Homo sapiens, PBMC) came to 108 nM; in assay [2], 804 nM.

Turning to `C=CC(=O)N1CCC[C@@H](Nc2ncnc3[nH]cc(F)c23)C1` [Example 42, 1-{(3R)-3-[(5-fluoro-7H-pyrrolo[2,3-d]pyrimidin-4-yl)amino]piperidin-1-yl}prop-2-en-1-one], the IC50 stood at 293 nM in assay [1] (Homo sapiens, PBMC) and 819 nM in assay [2].

For `C=CC(=O)N1C[C@@H]2C[C@H]1CN2c1cnc2[nH]cc(C(=O)NC(C)C)c2n1` [Example 300, 2-[(1S,4S)-5-acryloyl-2,5-diazabicyclo[2.2.1]hept-2-yl]-N-(propan-2-yl)-5H-pyrrolo[2,3-b]pyrazine-7-carboxamide], the IC50 came out at 714 nM in assay [1] and 3400 nM in assay [2].

`C=CC(=O)N1CCC(Nc2cnc3[nH]cc(C(=O)N[C@H](C)COC)c3n2)CC1` [Example 268, 2-[(1-acryloylpiperidin-4-yl)amino]-N-[(2R)-1-methoxypropan-2-yl]-5H-pyrrolo[2,3-b]pyrazine-7-carboxamide]: the half-maximal inhibitory concentration (IC50) in assay [1] (Homo sapiens, PBMC) was determined as 43.4 nM; in assay [2] it was 263 nM.

On to `C=CC(=O)N1CCC(Nc2cnc3[nH]cc(C(=O)N[C@H](CC)CC#N)c3n2)CC1` [Example 263, 2-[(1-acryloylpiperidin-4-yl)amino]-N-[(2R)-1-cyanobutan-2-yl]-5H-pyrrolo[2,3-b]pyrazine-7-carboxamide], for which the IC50 in assay [1] worked out at 74.3 nM; in assay [2], 431 nM.

For the molecule `C=CC(=O)N1CCC(Nc2cnc3[nH]cc(C(=O)NCC4CCCC4)c3n2)CC1` [Example 270, 2-[(1-acryloylpiperidin-4-yl)amino]-N-(cyclopentylmethyl)-5H-pyrrolo[2,3-b]pyrazine-7-carboxamide], the IC50 in assay [1] (Homo sapiens, PBMC) amounted to 53.6 nM; in assay [2], 1220 nM.

`C=CC(=O)N1CCC(Nc2cnc3[nH]cc(C(=O)NCCOC)c3n2)CC1` [Example 275, 2-[(1-acryloylpiperidin-4-yl)amino]-N-(2-methoxyethyl)-5H-pyrrolo[2,3-b]pyrazine-7-carboxamide]: the IC50 in assay [1] worked out at 149 nM; in assay [2] it was 389 nM.

Take `C=CC(=O)N1CCC(Nc2cnc3[nH]cc(C(=O)N[C@@H]4CC[C@H](F)C4)c3n2)CC1` [Example 255, 2-[(1-acryloylpiperidin-4-yl)amino]-N-[(1R,3S)-3-fluorocyclopentyl]-5H-pyrrolo[2,3-b]pyrazine-7-carboxamide]: the IC50 was 130 nM in assay [1] (Homo sapiens, PBMC) and 818 nM in assay [2].

As to `C=CC(=O)N1CCC[C@@H](Nc2ncnc3[nH]cc(CC)c23)C1` [Example 44, 1-{(3R)-3-[(5-ethyl-7H-pyrrolo[2,3-d]pyrimidin-4-yl)amino]piperidin-1-yl}prop-2-en-1-one], the results for the IC50 in assay [1] and in assay [2] were 320 nM and 1180 nM, respectively.

In the case of `C=CC(=O)N1CC[C@@H](Nc2cnc3[nH]cc(C(=O)NC(C)C)c3n2)[C@@H](OC)C1` [Example 302, 2-{[(3S,4R)-1-acryloyl-3-methoxypiperidin-4-yl]amino}-N-(propan-2-yl)-5H-pyrrolo[2,3-b]pyrazine-7-carboxamide], the IC50 in assay [1] worked out at 264 nM; in assay [2] it was 1310 nM.

On to `C=CC(=O)N1C[C@H](F)C[C@@H](Nc2ncnc3[nH]ccc23)C1` [Example 10, 1-((3R,5R)-3-((7H-pyrrolo[2,3-d]pyrimidin-4-yl)amino)-5-fluoropiperidin-1-yl)prop-2-en-1-one], for which the IC50 in assay [1] (Homo sapiens, PBMC) amounted to 133 nM; in assay [2], 461 nM.

Take `C=CC(=O)N1CCC[C@@H](Nc2ncnc3[nH]cc(C)c23)C1` [Example 43, 1-{(3R)-3-[(5-methyl-7H-pyrrolo[2,3-d]pyrimidin-4-yl)amino]piperidin-1-yl}prop-2-en-1-one]: the 50% inhibitory concentration (IC50) in assay [1] was 116 nM; in assay [2] it was 463 nM.

Consider `C=CC(=O)N1CC[C@@H](F)[C@@H](Nc2ncnc3[nH]ccc23)C1` [Example 54, 1-((3S,4R)-3-((7H-Pyrrolo[2,3-d]pyrimidin-4-yl)amino)-4-fluoropiperidin-1-yl)prop-2-en-1-one], for which the 50% inhibitory concentration (IC50) in assay [1] (Homo sapiens, PBMC) is 222 nM; in assay [2], 366 nM.

For `C=CC(=O)N1CC[C@H](Nc2cnc3[nH]cc(C(=O)NC(C)C)c3n2)[C@H](OC)C1` [Example 317, 2-{[(3R,4S)-1-acryloyl-3-methoxypiperidin-4-yl]amino}-N-(propan-2-yl)-5H-pyrrolo[2,3-b]pyrazine-7-carboxamide], the values for the IC50 in assay [1] and in assay [2] were 243 nM and 420 nM, respectively.

Turning to `C=CC(=O)N1CCC(Nc2cnc3[nH]cc(-c4ccccc4)c3n2)CC1` [Example 209, 1-{4-[(7-phenyl-5H-pyrrolo[2,3-b]pyrazin-2-yl)amino]piperidin-1-yl}prop-2-en-1-one], the results for the IC50 in assay [1] and in assay [2] were 152 nM and 6690 nM, respectively.
